Patent US6486196B2, “Anticancer compounds: process for their preparation and pharmaceutical compositions containing them” (Dr. Reddy's Research Foundation, priority 2000, dated 2002)

melting point | SMILES
122 °C | C=C1CCC2[C@](C)(CO)[C@H](O)CC[C@]2(C)[C@H]1C/C=C1/C(=O)OC[C@H]1OC(=O)NC(C)C (stereo partly drawn) [Example 10, 14-(N-isopropyl)carbamoyl andrographolide]
85.4 °C | C=C1CCC2[C@](C)(COC(=O)CC)C(OC(=O)CC)CC[C@]2(C)[C@H]1C/C=C1/C(=O)OCC1OC(=O)/C=C/c1ccc(OC)c(OC)c1 (stereo partly drawn) [Example 27, 14-(3,4-dimethoxy)cinnamoyl-3,19-dipropionyl andrographolide]
169 °C | C=C1CCC2[C@](C)(CO)[C@H](O)CC[C@]2(C)[C@H]1C/C=C1/C(=O)OC[C@H]1OC(C)=O (stereo partly drawn) [Example 7, 14-acetyl andrographolide]
77 °C | C=C1CCC2[C@](C)(CO)[C@H](O)CC[C@]2(C)[C@H]1C/C=C1/C(=O)OC[C@H]1OC(=O)/C=C/c1ccccc1 (stereo partly drawn) [Example 11, 14-Cinnamoyl andrographolide]
142 to 143 °C | C=C1CCC2[C@]3(C)COC(c4ccccc4)O[C@@H]3CC[C@]2(C)[C@H]1C/C=C1/C(=O)OC[C@H]1O (stereo partly drawn) [Example 2, 3,19-Benzylidene andrographolide]
122.6 °C | C=C1CCC2[C@](C)(CO)[C@H](O)CC[C@]2(C)[C@H]1C/C=C1/C(=O)OC[C@H]1OC(=O)C(C)C (stereo partly drawn) [Example 12, 14-Isopropanoyl andrographolide]
172.7 °C | C=C1CCC2[C@](C)(CO)[C@H](O)CC[C@]2(C)[C@H]1C/C=C1/C(=O)OC[C@H]1OC(=O)C(C)(C)C (stereo partly drawn) [Example 13, 14-Pivaloyl andrographolide]
70 °C | C=C1CCC2[C@]3(C)COC(C)(C)O[C@@H]3CC[C@]2(C)[C@H]1C/C=C1/C(=O)OC[C@H]1OC(=O)[C@H](CCSC)NC(=O)OC(C)(C)C (stereo partly drawn) [Example 4, 3,19-isopropylidene-14-(N-Boc-methionyl)andrographolide]
65 °C | C=C1CCC2[C@](C)(COC(=O)CC)[C@H](OC(=O)CC)CC[C@]2(C)[C@H]1C/C=C1/C(=O)OC[C@H]1OC(=O)CNC(=O)OC(C)(C)C (stereo partly drawn) [Example 20, 14-(N-Boc-glycinyl)-3,19-dipropionyl andrographolide]
